For data set [1], the system named is Staphylococcus epidermidis. In words: Antibacterial activity against Staphylococcus epidermidis ATCC 12228 incubated for 16 to 18 hrs by CLSI based broth dilution method. It is filed as functional. To be noted: time 16-18 hrs. Background: Dilution methods test growth across graded concentrations, often in twofold steps.
The subject of a further data set is Acinetobacter baumannii. Description: Antibacterial activity against Acinetobacter baumannii ATCC 19606 incubated for 16 to 18 hrs by CLSI based broth dilution method. The conditions noted are these: time 16-18 hrs. It is filed as functional.
Data set [2] is described as follows: Toxicity in ICR mouse assessed as median lethal dose administered as single IP dose measured upto 8 days. The conditions noted are these: in vivo, time < 8 day.
In data set [3] the test system is Staphylococcus aureus. In words: Drug resistance against methicillin-resistant Staphylococcus aureus ATCC 43300 assessed as fold increase in MIC measured after 10 passaging for 24 hrs. The data set is classed as functional.
In the next data set the test system is HepG2. Description: Cytotoxicity against human HepG2 cells measured after 72 hrs by MTT assay. The conditions noted are these: HepG2, 72 h. The data set is classed as functional, cell-based. In general terms: Formazan colour is commonly taken as a measure of viable cells.
The test system of another data set is MCF7. In words: Cytotoxicity against human MCF7 cells measured after 72 hrs by MTT assay. The data set is classed as functional, cell-based. The conditions noted are these: MCF7, 72 h.
The test system of data set [4] is Staphylococcus aureus. In words: Antibacterial activity against Staphylococcus aureus ATCC 29213 incubated for 16 to 18 hrs by CLSI based broth dilution method. It is filed as functional. The conditions noted are these: time 16-18 hrs.
In data set [5] the test system is Escherichia coli. Description: Antibacterial activity against Escherichia coli ATCC 25922 incubated for 16 to 18 hrs by CLSI based broth dilution method. The conditions noted are these: time 16-18 hrs. It is filed as functional.
The next data set has as its system HCT-116. Description: Cytotoxicity against human HCT-116 cells measured after 72 hrs by MTT assay. It is filed as functional, cell-based. To be noted: HCT-116, 72 h.
The target in data set [6] is T1, Dihydrofolate reductase (Homo sapiens) (UniProt P00374).
T1 sequence (whole entry): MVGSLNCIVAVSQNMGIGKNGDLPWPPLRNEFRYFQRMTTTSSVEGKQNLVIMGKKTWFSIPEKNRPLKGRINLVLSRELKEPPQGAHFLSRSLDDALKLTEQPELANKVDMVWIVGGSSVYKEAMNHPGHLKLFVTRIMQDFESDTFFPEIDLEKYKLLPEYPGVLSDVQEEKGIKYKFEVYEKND
In words: Inhibition of human DHFR at 1 uM incubated for 10 mins in presence of NADPH by colorimetry based analysis relative to control.

The test system of a further data set is Enterococcus faecalis. Description: Antibacterial activity against Enterococcus faecalis ATCC 29212 incubated for 16 to 18 hrs by CLSI based broth dilution method. It is filed as functional. The conditions noted are these: time 16-18 hrs.
A further data set deals with HGC-27. Description: Cytotoxicity against human HGC-27 cells measured after 72 hrs by MTT assay. To be noted: HGC-27, 72 h. The data set is classed as functional, cell-based.
For data set [7], the system named is Staphylococcus aureus. Description: Antibacterial activity against methicillin-resistant Staphylococcus aureus ATCC 43300 incubated for 16 to 18 hrs by CLSI based broth dilution method. The data set is classed as functional. To be noted: time 16-18 hrs.
Data set [8] has as its system Staphylococcus aureus. In words: Antibacterial activity against methicillin-resistant Staphylococcus aureus ATCC 43300 incubated for 16 to 18 hrs in presence of human plasma by CLSI based broth dilution method. To be noted: time 16-18 hrs. The data set is classed as functional.
The subject of data set [9] is Escherichia coli. Description: Antibacterial activity against Escherichia coli ATCC 25922 incubated for 16 to 18 hrs in presence of human plasma by CLSI based broth dilution method. It is filed as functional. The conditions noted are these: time 16-18 hrs.
Data set [10] deals with Staphylococcus aureus. Description: Antibacterial activity against Staphylococcus aureus ATCC 29213 incubated for 16 to 18 hrs in absence of human plasma by CLSI based broth dilution method. The conditions noted are these: time 16-18 hrs. The data set is classed as functional.
In data set [11] the test system is Staphylococcus aureus. Description: Drug resistance against methicillin-resistant Staphylococcus aureus ATCC 43300 assessed as increase in MIC measured after 10 passaging for 24 hrs. It is filed as functional, organism-based.
Data set [12] relates to Escherichia coli. Description: Antibacterial activity against Escherichia coli ATCC 25922 assessed as inhibition of bacterial growth at upto 8 times MIC measured upto 28 hrs by time kill curve assay. It is filed as functional, organism-based.
Data set [13] can be described thus: Toxicity in ip dosed ICR mouse assessed as animal death at high dose measured upto 8 days. The data set is classed as organism-based. The conditions noted are these: in vivo, 192 h, time < 8 day.
The test system of data set [14] is Staphylococcus aureus. In words: Antibacterial activity against methicillin-resistant Staphylococcus aureus ATCC 43300 assessed as inhibition of bacterial growth at upto 8 times MIC measured upto 28 hrs by time kill curve assay. The data set is classed as functional, organism-based.
The subject of data set [15] is Escherichia coli. In words: Antibacterial activity against Escherichia coli ATCC 25922 incubated for 16 to 18 hrs in absence of human plasma by CLSI based broth dilution method. To be noted: time 16-18 hrs. The data set is classed as functional.
Data set [16] concerns Staphylococcus aureus. In words: Antibacterial activity against Staphylococcus aureus ATCC 29213 incubated for 16 to 18 hrs in presence of human plasma by CLSI based broth dilution method. The data set is classed as functional. The conditions noted are these: time 16-18 hrs.
Data set [17] concerns Staphylococcus aureus. Description: Antibacterial activity against methicillin-resistant Staphylococcus aureus ATCC 43300 incubated for 16 to 18 hrs in absence of human plasma by CLSI based broth dilution method. The conditions noted are these: time 16-18 hrs. It is filed as functional.

pIC50: −log10 of the molar value. Values after ≈ are worked out from the molar mass of the structure shown. Active and inactive are the calls of the source. The rule behind the calls is not given here.

What is called MIC is the lowest concentration found to suppress growth. As usually defined, the LD50 is the dose expected to kill half of the subjects tested. One may read the pIC50 as the negative decadic logarithm of the IC50, by convention in mol/L. One may read the inhibition as the drop in the measured response relative to a control, in per cent. `Nc1nc(N)c2c(ccc3c2ccn3Cc2ccc(-c3ccccc3)cc2)n1`: the MIC is ≤ 0.004 µg/mL in [1]; > 32 µg/mL with Acinetobacter baumannii; 1 µg/mL (≈ 2.74 µM) in the data set with Staphylococcus aureus [4]; > 128 µg/mL in the data set on Escherichia coli [5]; 0.25 µg/mL (≈ 0.684 µM) in the data set on Enterococcus faecalis; 0.5 µg/mL (≈ 1.37 µM) in the data set with Staphylococcus aureus [7]. The LD50 at 192 h in [2] was 154 mg/kg. Besides, in the data set on Staphylococcus aureus [3], the “fold change (FC)” value was 8. The pIC50 is 6.28 in the data set with HepG2, 6.24 in the data set on MCF7, 7.49 with HCT-116 and 7.07 in the data set on HGC-27. In addition, the inhibition in data set [6] was 54.8%.

Consider `Nc1nc(N)c2c(ccc3c2ccn3Cc2cccc3scnc23)n1`, for which the MIC in data set [1] is ≤ 0.004 µg/mL; in the data set with Staphylococcus aureus [8] it was 0.25 µg/mL; with Escherichia coli [9], 0.25 µg/mL; in the data set on Acinetobacter baumannii it was 0.5 µg/mL (≈ 1.44 µM); in the data set on Staphylococcus aureus [10], 0.008 µg/mL (≈ 0.0231 µM); in the data set on Staphylococcus aureus [4], 0.008 µg/mL (≈ 0.0231 µM). Further, the MIC was 0.03 µg/mL (≈ 0.0866 µM) in the data set on Escherichia coli [5]; 0.03 µg/mL (≈ 0.0866 µM) against Escherichia coli [15]; ≤ 0.004 µg/mL against Enterococcus faecalis; 0.25 µg/mL in the data set with Staphylococcus aureus [16]; ≤ 0.004 µg/mL in the data set on Staphylococcus aureus [17]; 0.004 µg/mL (≈ 0.0115 µM) against Staphylococcus aureus [7]. Further, in data set [2], the LD50 at 192 h came out at 88.9 mg/kg. For the same compound, the result with Staphylococcus aureus [11], in the data set with Escherichia coli [12] and in the data set with Staphylococcus aureus [14] was Active. The pIC50 with HepG2 is 6.77; with MCF7, 6.96; in the data set on HCT-116, 7.49; in the data set with HGC-27, 7.96. Besides, in [13], the Activity result is on record as “Toxic”.

Values taken from ChEMBL document CHEMBL5370585, “Exploration and Biological Evaluation of 1,3-Diamino-7H-pyrrol[3,2-f]quinazoline Derivatives as Dihydrofolate Reductase Inhibitors” (J Med Chem, 2023).
